40 molecules from patent publication US12351580B2, “NLRP3 modulators” (Innate Tumor Immunity, Inc., priority 2017, dated 2025) can be followed below.

What is called EC50 is the concentration at which the effect is half-maximal.

T1 sequence (Q96P20 whole entry): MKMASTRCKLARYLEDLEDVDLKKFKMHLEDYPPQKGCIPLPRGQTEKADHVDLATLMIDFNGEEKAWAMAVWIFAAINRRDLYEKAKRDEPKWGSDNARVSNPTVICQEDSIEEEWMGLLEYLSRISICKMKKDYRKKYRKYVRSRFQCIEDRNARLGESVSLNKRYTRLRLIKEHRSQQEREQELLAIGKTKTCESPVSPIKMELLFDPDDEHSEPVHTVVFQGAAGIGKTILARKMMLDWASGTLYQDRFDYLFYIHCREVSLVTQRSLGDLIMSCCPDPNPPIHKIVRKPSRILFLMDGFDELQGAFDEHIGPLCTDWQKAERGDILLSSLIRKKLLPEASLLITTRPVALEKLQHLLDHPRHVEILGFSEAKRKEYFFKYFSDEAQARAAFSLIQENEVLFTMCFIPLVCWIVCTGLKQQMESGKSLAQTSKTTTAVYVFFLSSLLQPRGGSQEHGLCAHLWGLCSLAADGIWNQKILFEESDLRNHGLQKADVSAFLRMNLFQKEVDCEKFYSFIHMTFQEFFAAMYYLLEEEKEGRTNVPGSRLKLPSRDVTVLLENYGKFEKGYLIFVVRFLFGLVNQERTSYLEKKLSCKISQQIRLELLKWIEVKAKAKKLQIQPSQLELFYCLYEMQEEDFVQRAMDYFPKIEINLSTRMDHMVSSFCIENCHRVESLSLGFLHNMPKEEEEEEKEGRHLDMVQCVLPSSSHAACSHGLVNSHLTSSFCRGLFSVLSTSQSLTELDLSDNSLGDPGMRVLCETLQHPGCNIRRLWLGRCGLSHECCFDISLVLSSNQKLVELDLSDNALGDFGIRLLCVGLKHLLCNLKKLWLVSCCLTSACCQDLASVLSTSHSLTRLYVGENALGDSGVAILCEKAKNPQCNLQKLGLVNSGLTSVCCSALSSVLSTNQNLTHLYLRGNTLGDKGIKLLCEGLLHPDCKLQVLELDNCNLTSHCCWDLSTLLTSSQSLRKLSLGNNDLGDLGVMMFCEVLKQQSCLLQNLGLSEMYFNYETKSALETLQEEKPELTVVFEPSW

The assay concerns the target T1, hNLRP3 (Homo sapiens, UniProt Q96P20).
T1 construct: THP-1 cells were purchased from the American Type Culture Collection; host or cells: THP-1 cells, PMA-differentiated
As to the kind of experiment: Measurement of IL-1β production in PMA-differentiated THP-1 cells (hNLRP3 agonist; ELISA, alternative and hTRF procedures). Type of assay: cell-based. Put shortly:
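Supernatant IL-1β was quantified by ELISA in two procedures and by hTRF (kit antibodies at 1:40) in a third. THP-1 cells were first differentiated with PMA ([…] for 24 h; 20 μg/ml overnight; 50 ng/ml overnight), then incubated in 2% FBS RPMI with compounds for 4 h, 2 h and 2 h, respectively, at 1% DMSO or a 10 μM top concentration.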
A general note: ELISA stands for enzyme-linked immunosorbent assay.
For the molecule `CCC(=O)NCc1nc2c(N)nc3cc(-c4cc[nH]n4)ccc3c2[nH]1` [Compound 111], a half-maximal effect (EC50) was put at 0.72 µM.
Turning to `CCN(Cc1nc2c(N)nc3cc(-c4cc[nH]n4)ccc3c2[nH]1)C(=O)c1nccs1` [Compound 114], the EC50 was 1.04 µM.
For `CN(Cc1nc2c(N)nc3cc(-c4cc[nH]n4)ccc3c2[nH]1)S(C)(=O)=O` [Compound 115], the EC50 was found to be 0.9 µM.
`CC(c1nc2c(N)nc3cc(-n4cccn4)ccc3c2[nH]1)N1CCCC1=O` (stereo not shown) [Compound 117] displayed an EC50 of 1.26 µM.
In turn, `CCN(Cc1nc2c(N)nc3cc(-c4cc[nH]n4)ccc3c2[nH]1)C(=O)C1CC1` [Compound 118] showed an EC50 of 1.36 µM.
Consider `Nc1nc2cc(-c3cccs3)ccc2c2[nH]c(CN3CCCC3=O)nc12` [Compound 309, 1-[(4-amino-7-thiophen-2-yl-1H-imidazo[4,5-c]quinolin-2-yl)methyl]pyrrolidin-2-one], for which the 50% effective concentration (EC50) came out at 0.24 µM.
With `N#Cc1ccccc1-c1ccc2c(c1)nc(N)c1nc(CN3CCCC3=O)[nH]c12` [Compound 315, 2-[4-amino-2-[(2-oxopyrrolidin-l-yl)methyl]-1H-imidazo[4,5-c]quinolin-7-yl]benzonitrile], the EC50 was 1.18 µM.
Turning to `Nc1nc2cc(Br)ccc2c2[nH]c(CN3CC(c4ccccc4)CC3=O)nc12` (stereo not shown) [Compound 316, 1-[(4-amino-7-bromo-1H-imidazo[4,5-c]quinolin-2-yl)methyl]-4-phenylpyrrolidin-2-one], the EC50 was 1.1 µM.
In the case of `COc1ncccc1-c1ccc2c(c1)nc(N)c1nc(CN3CCCC3=O)[nH]c12` [Compound 319, 1-[[4-amino-7-(2-methoxypyridin-3-yl)-1H-imidazo[4,5-c]quinolin-2-yl]methyl]pyrrolidin-2-one] it was 6.2 µM; in that of `Nc1nc2cc(-c3cccnc3Cl)ccc2c2[nH]c(CN3CCCC3=O)nc12` [Compound 320, 1-[[4-amino-7-(2-chloropyridin-3-yl)-1H-imidazo[4,5-c]quinolin-2-yl]methyl]pyrrolidin-2-one], 1.5 µM.
Regarding `Nc1nc2cc(-c3cnccc3Cl)ccc2c2[nH]c(CN3CCCC3=O)nc12` [Compound 321, 1-[[4-amino-7-(4-chloropyridin-3-yl)-1H-imidazo[4,5-c]quinolin-2-yl]methyl]pyrrolidin-2-one], it took 4.5 µM to reach a half-maximal effect (EC50).
In the case of `Nc1nc2cc(-c3ccc(C(F)(F)F)nc3)ccc2c2[nH]c(CN3CCCC3=O)nc12` [Compound 324, 1-[[4-amino-746-(trifluoromethyppyridin-3-yl]-1H-imidazo[4,5-c]quinolin-2-yl]methyl]pyrrolidin-2-one] it was 6.7 µM; in that of `N#Cc1cncc(-c2ccc3c(c2)nc(N)c2nc(CN4CCCC4=O)[nH]c23)c1` [Compound 326, 5-[4-amino-2-[(2-oxopyrrolidin-l-yl)methyl]-1H-imidazo[4,5-c]quinolin-7-yl]pyridine-3-carbonitrile], 2.7 µM.
Regarding `N#Cc1ccc(-c2ccc3c(c2)nc(N)c2nc(CN4CCCC4=O)[nH]c23)cn1` [Compound 327, 5-[4-amino-2-[(2-oxopyrrolidin-l-yl)methyl]-1H-imidazo[4,5-c]quinolin-7-yl]pyridine-2-carbonitrile], the EC50 turned out to be 13 µM.
`Nc1nc2cc(-c3cncc(Cl)c3)ccc2c2[nH]c(CN3CCCC3=O)nc12` [Compound 328, 1-[[4-amino-7-(5-chloropyridin-3-yl)-1H-imidazo[4,5-c]quinolin-2-yl]methyl]pyrrolidin-2-one]: the response was half-maximal at 4.1 µM (EC50).
In the case of `Nc1nc2cc(-c3ccc(F)nc3)ccc2c2[nH]c(CN3CCCC3=O)nc12` [Compound 330, 1-[[4-amino-7-(6-fluoropyridin-3-yl)-1H-imidazo[4,5-c]quinolin-2-yl]methyl]pyrrolidin-2-one], the EC50 stood at 1.6 µM.
`Nc1nc2cc(-c3cncc(F)c3)ccc2c2[nH]c(CN3CCCC3=O)nc12` [Compound 331, 1-[[4-amino-7-(5-fluoropyridin-3-yl)-1H-imidazo[4,5-c]quinolin-2-yl]methyl]pyrrolidin-2-one]: the EC50 was found to be 3.2 µM.
For the molecule `Nc1nc2cc(C3CCCCCC3)ccc2c2[nH]c(CN3CCCC3=O)nc12` [Compound 332, 1-[(4-amino-7-cycloheptyl-1H-imidazo[4,5-c]quinolin-2-yl)methyl]pyrrolidin-2-one], the response was half-maximal at 3.3 µM (EC50).
On to `Nc1nc2cc(-c3cccnc3)ccc2c2[nH]c(CN3CC(c4ccccc4)CC3=O)nc12` (stereo not shown) [Compound 333, 1-[(4-amino-7-pyridin-3-yl-1H-imidazo[4,5-c]quinolin-2-yl)methyl]-4-phenylpyrrolidin-2-one], for which a half-maximal response (EC50) required 1.9 µM.
Consider `COC(=O)CCCn1c(CN2CCCC2=O)nc2c(N)nc3ccccc3c21` [Compound 335], for which the EC50 turned out to be 6.5 µM.
Next, `CN(C)C(=O)CCCn1c(CN2CCCC2=O)nc2c(N)nc3cc(Cl)ccc3c21` [Compound 337]: 80 µM.
Consider `CN(C)C(=O)CCCn1c(CN2CCCC2=O)nc2c(N)nc3cc(-c4cccnc4)ccc3c21` [Compound 340], for which the EC50 is 50 µM.
For `COC(=O)CCCn1c(CN2CCCC2=O)nc2c(N)nc3cc(Br)ccc3c21` [Compound 341], the EC50 stood at 2.1 µM.
The molecule `COC(=O)CCCn1c(CN2CCCC2=O)nc2c(N)nc3cc(-c4cccnc4)ccc3c21` [Compound 342] returned an EC50 of 3.3 µM.
`Nc1nc2ccccc2c2[nH]c(CN3CCCCC3=O)nc12` [Compound 346]: the EC50 is 17.3 µM.
`COC(=O)CCCn1c(CN2CCCCC2=O)nc2c(N)nc3ccccc3c21` [Compound 347] displayed an EC50 of 41 µM.
`CN(C)Cc1nc2c(N)nc3cc(-c4cc[nH]n4)ccc3c2[nH]1` [Compound 348] returned an EC50 of 0.89 µM.
In the case of `CCN(C)Cc1nc2c(N)nc3cc(-c4cc[nH]n4)ccc3c2[nH]1` [Compound 349] it was 0.6 µM; in that of `Nc1nc2cc(-n3cccn3)ccc2c2[nH]c(CN3C[C@@H](c4ccccc4)CC3=O)nc12` [Compound 357], 0.64 µM; in that of `Nc1nc2cc(-n3cccn3)ccc2c2[nH]c(CN3C[C@H](c4ccccc4)CC3=O)nc12` [Compound 358], 0.63 µM.
The molecule `Nc1nc2cc(-c3cc[nH]n3)ccc2c2[nH]c(CN3C(=O)OCC3c3ccccc3)nc12` (stereo not shown) [Compound 363] gave an EC50 of 5.8 µM.
In the case of `Nc1nc2cc(-c3cc[nH]n3)ccc2c2[nH]c(CN3CCOC3=O)nc12` [Compound 365] it was 5 µM.
In the case of `CN1CCN(Cc2nc3c(N)nc4cc(-c5cc[nH]n5)ccc4c3[nH]2)C1=O` [Compound 368] it was 3.9 µM; in that of `CN(Cc1nc2c(N)nc3cc(-c4cc[nH]n4)ccc3c2[nH]1)C(=O)CO` [Compound 370], 4.8 µM.
In the case of `CN(Cc1nc2c(N)nc3cc(-c4cc[nH]n4)ccc3c2[nH]1)C(=O)CN` [Compound 372] it was 8.3 µM.
Consider `CN(C)C(=O)N(C)Cc1nc2c(N)nc3cc(-c4cc[nH]n4)ccc3c2[nH]1` [Compound 375], for which the EC50 amounted to 2.4 µM.
On to `CN(Cc1nc2c(N)nc3cc(-c4cc[nH]n4)ccc3c2[nH]1)C(=O)c1ccccc1` [Compound 376], for which the EC50 came to 3.6 µM.
Molecule `CN(Cc1nc2c(N)nc3cc(-c4cc[nH]n4)ccc3c2[nH]1)C(=O)c1nccs1` [Compound 377] returned an EC50 of 4.3 µM.
Next, `CCN(C=O)Cc1nc2c(N)nc3cc(-c4cc[nH]n4)ccc3c2[nH]1` [Compound 379]: 2 µM.
Molecule `CCN(Cc1nc2c(N)nc3cc(-c4cc[nH]n4)ccc3c2[nH]1)C(=O)CN(C)C` [Compound 383] yielded an EC50 of 3.6 µM.
